# Source: US9314497B2, “E2F as a target of hormone refractory prostate cancer” (RUTGERS, THE STATE UNIVERSITY OF NEW JERSEY, priority 2009, dated 2016)
# Where two headings read alike, the source gives them in different places. Where no end group is shown, it is not given here.
# Assays:
# [1] = tested on: normal human CD34 positive cells containing hematopoeitic progenitors (HSC); conditions: 24 h exposure
# tumor cell lines [2] = tested on: tumor cell lines
# Protocol: (§2) The cells cultured in RPMI media and 10% fetal calf serum were treated with various concentrations of SEQ ID NO: 3 or SEQ ID NO: 19 at various concentrations for 24 hours and cell viability was determined using Vi-CELL automated cell counter.
# tumor cell lines [3] = assay: Cell viability after 24 h treatment (Vi-CELL automated cell counter); conditions: RPMI media and 10% fetal calf serum
# Protocol: as §2
# [4] = Tolerability in tumor-bearing nude mice; assay type: in vivo; conditions: 60 mg/kg dose; all animals recovered quickly
# Protocol: (§1) Nude mice bearing the H-69 small cell carcinoma xenografts were treated with PEP-2 encapsulated in PEGylated liposomes as previously described. Female mice (20-22 g) were inoculated […] with 10 million tumor cells suspended in 50 uL of PBS and an equal volume of matrigel. When the tumors were approximately 50 mm 3, the animals were randomized into groups of 6 and either treated with 0.06 ml of empty PEGylated liposomes, or 0.03 ml of PEGylated liposomes (30 mg/kg of PEP-2) or 0.06 ml of PEGylated liposomes (60 mg/kg of PEP-2), every 4 days. Tumor size (FIG. 10) and animal weight (FIG. 11) was measured every three days. […] Treatment of mice bearing advanced Tumors (FIG. 12) and mice with advanced tumors tolerate the encapsulated PEP-2 liposome treatment (FIG. 13).
# [5] = tested on: H-69 small cell carcinoma xenografts; assay: H-69 xenograft tumor size in nude mice; assay type: in vivo; conditions: 30 or 60 mg/kg of PEP-2 in PEGylated liposomes, every 4 days
# Protocol: as §1
molecule,measurement,setting,value
CC[C@H](C)[C@H](NC(=O)[C@H](CCCCN)NC(=O)[C@@H](NC(=O)[C@H](CCC(N)=O)NC(=O)[C@@H](N)CCCNC(=N)N)[C@@H](C)CC)C(=O)N[C@@H](Cc1c[nH]c2ccccc12)C(=O)N[C@@H](Cc1ccccc1)C(=O)N[C@@H](CCC(N)=O)C(=O)N[C@@H](CC(N)=O)C(=O)N[C@@H](CCCNC(=N)N)C(=O)N[C@@H](CCCNC(=N)N)C(=O)N[C@@H](CCSC)C(=O)N[C@@H](CCCCN)C(=O)N[C@@H](Cc1c[nH]c2ccccc12)C(=O)N[C@@H](CCCCN)C(=O)N[C@@H](CCCCN)C(=O)N[C@@H](Cc1c[nH]cn1)C(=O)N[C@@H](Cc1c[nH]cn1)C(=O)N[C@@H](Cc1c[nH]cn1)C(=O)N[C@@H](CCCNC(=N)N)C(=O)N[C@@H](CC(C)C)C(=O)N[C@@H](CO)C(=O)N[C@@H](Cc1c[nH]cn1)C(=O)O [SEQ ID NO: 3],IC50,[1],> 80 µM
same,growth inhibition / cytotoxicity in tumor cell lines,tumor cell lines [2],"cytotoxic to most, but not all, tumor cell lines"
"CC[C@H](C)[C@H](NC(=O)[C@H](CCCCN)NC(=O)[C@@H](NC(=O)[C@H](CCC(N)=O)NC(=O)[C@@H](N)CCCNC(=N)N)[C@@H](C)CC)C(=O)N[C@@H](Cc1c[nH]c2ccccc12)C(=O)N[C@@H](Cc1ccccc1)C(=O)N[C@@H](CCC(N)=O)C(=O)N[C@@H](CC(N)=O)C(=O)N[C@@H](CCCNC(=N)N)C(=O)N[C@@H](CCCNC(=N)N)C(=O)N[C@@H](CCSC)C(=O)N[C@@H](CCCCN)C(=O)N[C@@H](Cc1c[nH]c2ccccc12)C(=O)N[C@@H](CCCCN)C(=O)N[C@@H](CCCCN)C(=O)N[C@@H](C)C(=O)N[C@@H](C)C(=O)N[C@@H](C)C(=O)N[C@H](C(=O)N[C@@H](CC(C)C)C(=O)N[C@@H](CO)C(=O)N[C@@H](C)C(=O)O)C(C)C [SEQ ID NO: 19, reference compound]",growth inhibition / cytotoxicity in tumor cell lines,tumor cell lines [2],little or no effect on cell growth
"HHHRLSH [SEQ ID NO: 1, HHHRLSH]",growth inhibition / cytotoxicity in tumor cell lines,tumor cell lines [3],did not inhibit growth
RQIKIWFQNRRIKWKKHHHRLSH (penetratin) [SEQ ID NO: 34],acute adverse effect,[4],acute transient distress
same,tumor size,[5],Decreases the Size of Tumors
